Here are results for one compound from patent publication US8039454B2, “Macrolide compounds with antibiotic and antineoplastic properties” (Weihe Pharmaceuticals Co. Ltd., priority 2006, dated 2011).

Converted amounts (≈) assume the structure as drawn.

Holding throughout (test): MIC by standard dilution method in Tryptic Soy Broth
Common to all, as to type: cell-based

Experiment [1] concerns Staphylococcus epidermidis. The conditions noted are these: 35° C., 24 h incubation. How it is done: (§1) To determine minimum inhibitory concentration (MIC) of the WBI-3001, the standard dilution method was used. The tests were conducted at 35° C. and the MICs were determined after 24 h incubation.
For the next experiment, the system named is Escherichia coli. The conditions noted are these: 35° C., 24 h incubation. How it is done: as §1
The subject of a further experiment is Enterococcus faecalis. The conditions noted are these: 35° C., 24 h incubation. How it is done:
as §1

Another experiment deals with Streptococcus pyogenes. The conditions noted are these: 35° C., 24 h incubation. How it is done:
as §1

The test system of a further experiment is Pseudomonas aeruginosa. The conditions noted are these: 35° C., 24 h incubation. How it is done:
as §1

The test system of experiment [2] is S. aureus MSRA (clinical isolates of methicillin-resistant strain). The conditions noted are these: Staphylococcus aureus, 24 h. How it is done:
as §1

For the compound `CC[C@H]1OC(=O)[C@H](C)[C@@H](O[C@H]2C[C@@](C)(OC)[C@@H](O)[C@H](C)O2)[C@H](C)[C@@H](O[C@@H]2O[C@H](C)C[C@H](N(C)C)[C@H]2O)[C@](C)(O)C[C@@H](C)C(=O)[C@H](C)[C@@H](O)[C@]1(C)O` [Erythromycin], the MIC in experiment [1] is 0.25 µg/mL (≈ 0.341 µM); with Escherichia coli, 1 µg/mL (≈ 1.36 µM); in the experiment with Enterococcus faecalis it was over 32 µg/mL; in the experiment on Streptococcus pyogenes it was 0.03 µg/mL (≈ 0.0409 µM); with Pseudomonas aeruginosa it was over 32 µg/mL; in experiment [2] it was over 32 µg/mL.
